In patent US12435080B2, “sGC stimulators” (Tisento Therapeutics Inc., priority 2016, dated 2025):
Numbering of substitutions follows the chain as printed. Where two headings read alike, the source gives them in different places.

How the values were obtained:
sGC enzyme = molecular target: T1, sGC enzyme (Homo sapiens, UniProt Q02108+Q02153); test: cGMP GloSensor cell-based assay, 384-well format; conditions: HEK293 cells expressing GloSensor 40F cGMP, 10 μM DETA-NONOate, normalized to 30 μM Compound Y
T1 construct: incorporated into these cells detect cGMP formed by the compounds stimulating the sGC enzyme; host or cells: HEK293 cells stably expressing GloSensor 40F cGMP biosensor
T1 sequence (Q02153 1-619): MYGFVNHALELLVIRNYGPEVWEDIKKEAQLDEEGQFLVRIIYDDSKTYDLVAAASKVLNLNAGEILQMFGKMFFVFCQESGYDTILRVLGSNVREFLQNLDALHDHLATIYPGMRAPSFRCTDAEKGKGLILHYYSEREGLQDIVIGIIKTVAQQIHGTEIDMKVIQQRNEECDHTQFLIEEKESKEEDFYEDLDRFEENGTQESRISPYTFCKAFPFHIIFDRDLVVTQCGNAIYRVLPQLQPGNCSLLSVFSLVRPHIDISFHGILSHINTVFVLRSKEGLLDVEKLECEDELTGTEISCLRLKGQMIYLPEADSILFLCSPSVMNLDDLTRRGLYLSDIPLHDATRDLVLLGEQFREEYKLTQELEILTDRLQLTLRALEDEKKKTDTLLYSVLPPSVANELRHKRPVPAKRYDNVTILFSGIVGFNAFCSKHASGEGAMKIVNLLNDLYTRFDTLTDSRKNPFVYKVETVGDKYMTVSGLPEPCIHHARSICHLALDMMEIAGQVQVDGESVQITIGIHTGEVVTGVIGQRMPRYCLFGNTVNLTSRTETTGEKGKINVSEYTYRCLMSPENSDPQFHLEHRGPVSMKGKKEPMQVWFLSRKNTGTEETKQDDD
T1 sequence (Q02108 1-690): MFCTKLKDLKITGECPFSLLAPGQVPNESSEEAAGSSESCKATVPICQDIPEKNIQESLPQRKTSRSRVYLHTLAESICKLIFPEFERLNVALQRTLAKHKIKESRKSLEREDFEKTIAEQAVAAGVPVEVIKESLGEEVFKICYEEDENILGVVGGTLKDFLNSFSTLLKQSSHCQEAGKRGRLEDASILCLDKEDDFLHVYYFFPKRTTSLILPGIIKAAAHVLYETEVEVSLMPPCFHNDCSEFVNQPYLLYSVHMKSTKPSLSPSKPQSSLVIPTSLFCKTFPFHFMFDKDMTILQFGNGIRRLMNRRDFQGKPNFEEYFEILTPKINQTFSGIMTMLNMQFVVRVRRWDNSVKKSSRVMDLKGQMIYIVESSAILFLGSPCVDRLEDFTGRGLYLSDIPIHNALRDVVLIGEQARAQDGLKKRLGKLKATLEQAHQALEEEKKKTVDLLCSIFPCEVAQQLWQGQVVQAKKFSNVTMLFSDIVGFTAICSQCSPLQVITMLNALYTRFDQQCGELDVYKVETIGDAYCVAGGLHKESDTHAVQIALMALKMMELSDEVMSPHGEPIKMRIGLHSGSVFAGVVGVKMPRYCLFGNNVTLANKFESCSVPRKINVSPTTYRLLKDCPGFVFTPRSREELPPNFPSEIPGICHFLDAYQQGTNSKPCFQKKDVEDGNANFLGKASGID
How it was run: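 HEK293 cells expressing GloSensor 40F cGMP luciferase biosensor, preloaded with 2 mM GloSensor substrate for 90 min at 25 °C. Endpoint luminescence read after 55 min compound incubation at room temperature.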

sGC = molecular target: T2, sGC (Rattus norvegicus, UniProt P20595); test: cGMP neuronal cell-based assay; conditions: rat primary hippocampal neurons, 30 μM DETA-NO, cGMP by LC-MS/MS, normalized to 10 μM Compound Y
T2 construct: Rat primary neurons were isolated from fetuses of 18-day pregnant Sprague-Dawley females; endogenous in cells; host or cells: Primary rat hippocampal neurons (E18 Sprague-Dawley fetuses)
T2 sequence (P20595 1-619): T1 sequence (Q02153 1-619) with N171S, E205D, N247K, T299A, K615N, D618E, D619N
Method: Rat primary neurons were isolated from fetuses of 18-day pregnant Sprague-Dawley females. The fetuses were collected in Hanks' balanced salt solution (HBSS) and brains were rapidly removed. The cerebral hippocampi were isolated and mechanically fragmented. Further tissue digestion was performed with 0.25% (wt/vol) trypsin solution in HBSS without Ca2+ and Mg2+ for 15 min at 37° C. After trypsination, cells were washed and resuspended in neurobasal medium supplemented with 0.5 mM L-glutamine, 12.5 uM glutamic acid, 2% B-27 and 100U/mL penicillin, and 100 μg/mL streptomycin. Cells were plated at a density of 4×10^4 cells/well in a poly-D-lysine coated 384-well flat clear-bottom plate (Corning Cat No 354662). Cells were incubated 6-7 days at 37° C. in a humidified chamber with 5% CO2. Media was removed and cells were washed 1× with HBSS containing Ca2+ and Mg2+, and replaced with 40 uL HBSS containing 0.5 mM IBMX, and incubated for 15 minutes at 37° C. 10 uL of a 5× stock of test compounds with diethylenetriamine NONOate (DETA-NO) was added. Final concentration of DETA-NO was 30 μM. Cells were incubated for 20 min at 37° C. Medium was removed, 50 uL of ice-cold 10% acetic acid was added, and incubated for 60 minutes at 4° C. Following centrifugation at 4° C. for 5 minutes at 1000×g to pellet cell debris, the supernatant was aspirated to a clean plate and the samples were analyzed for cGMP content. cGMP concentrations were determined from each sample using LC-MS/MS.
Data were normalized to a high control using the following equation: 100*(Sample−Low Control)/(High Control−Low Control), where the low control is the average of 15 samples treated with 1% DMSO, and the high control is the average of 15 samples treated with 10 μM of the known sGC stimulator Compound Y (depicted in Example 2). Data were fit using a 4-parameter fit (log(agonist) vs. response—variable slope) using GraphPad Prism Software v.5. n=2 for all compounds. The Absolute EC50 was interpolated from the curve fit and is defined as the concentration at which a given compound elicits 50% of the high control response after data normalization. Compounds failing to elicit a minimum response of 50% are reported as >30 μM. For compounds run in duplicate or n higher than 2, the result herein given is the geometric mean of the several results obtained.

[1] = compounds in Table IB, read-out: Glo-sensor Abs EC50
[2] = compounds in Table IB, read-out: sGC-Neuron Abs EC50
[3] = compounds in Table IA, read-out: Glo-sensor AbsEC50
[4] = compounds in Table IA, read-out: sGC-neuron Abs EC50

In the case of `FC(F)(F)c1n[nH]c(-c2nc(Cc3cncnc3)c3cc(Cl)ccn23)n1` [Compound I-6, 7-Chloro-1-(pyrimidin-5-ylmethyl)-3-(3-(trifluoromethyl)-1H-1,2,4-triazol-5-yl)imidazo[1,5-a]pyridine], the EC50 (sGC enzyme; [1]) is reported as < 100 nM and the EC50 (sGC; [2]) is reported as ≤ 100 nM.

`Fc1cnc2c(c1)c(-c1nc(C(F)(F)F)n[nH]1)nn2Cc1ccccc1F` [Compound I-8, 5-Fluoro-1-(2-fluorobenzyl)-3-(3-(trifluoromethyl)-1H-1,2,4-triazol-5-yl)-1H-pyrazolo[3,4-b]pyridine] was tested, and the EC50 (sGC enzyme; [3]) was < 100 nM and the EC50 (sGC; [4]) was ≤ 100 nM.

With `FC(F)(F)c1n[nH]c(-c2nc(CCC(F)(F)C(F)(F)F)c3ccccn23)n1` [Compound I-9] the EC50 (sGC enzyme; [1]) was 100 to 1000 nM and the EC50 (sGC; [2]) was 100 to 1000 nM.

With `Fc1ccc(F)c(Cc2nn(-c3nc(C(F)(F)F)n[nH]3)c3cccnc23)c1` [Compound I-130, 3-(2,5-Difluorobenzyl)-1-(3-(trifluoromethyl)-1H-1,2,4-triazol-5-yl)-1H-pyrazolo[4,3-b]pyridine] the EC50 (sGC enzyme; [3]) was < 100 nM and the EC50 (sGC; [4]) was ≤ 100 nM.

For `Fc1ccc(F)c(Cc2nn(-c3nc(C(F)F)n[nH]3)c3cccnc23)c1` [Compound I-131, 3-(2,5-Difluorobenzyl)-1-(3-(difluoromethyl)-1H-1,2,4-triazol-5-yl)-1H-pyrazolo[4,3-b]pyridine], the EC50 (sGC enzyme; [3]) was < 100 nM and the EC50 (sGC; [4]) was ≤ 100 nM.

With `Fc1cccc(Cc2nn(-c3nc(C(F)F)n[nH]3)c3cccnc23)c1F` [Compound I-127, 3-(2,3-Difluorobenzyl)-1-(3-(difluoromethyl)-1H-1,2,4-triazol-5-yl)-1H-pyrazolo[4,3-b]pyridine] the EC50 (sGC enzyme; [3]) was 100 to 1000 nM and the EC50 (sGC; [4]) was ≤ 100 nM.
